Test results: patent publication US5968987A, “Halofantrine free base for the treatment of malaria and compositions” (priority 1994, dated 1999)
Where a name gives a salt, the structure may show the parent alone.

What was measured:
physchem = type: physicochemical
Excerpt: The following data and examples serve to illustrate the invention.

[1] = in words, background; cited from earlier work
[2] = in words, background; cited from earlier work; remark: listed apart in the source
malarial infections = conditions: in words, background; cited from earlier work

For `CCCCN(CCCC)CCC(O)c1cc2c(Cl)cc(Cl)cc2c2cc(C(F)(F)F)ccc12` (centres unmarked) [halofantrine free base], the “lipid solubility and miscibility” value (physchem) was “unexpectedly high”.

For `CCCCN(CCCC)CCC(O)c1cc2c(Cl)cc(Cl)cc2c2cc(C(F)(F)F)ccc12` (centres unmarked) [halofantrine hydrochloride], the solubility (physchem; aqueous solutions, solubility in aqueous solutions) is given as about 1 µg/mL, the solubility (physchem; peanut oil, organic solvent or mixture, solubility in a triglyceride lipid such as peanut oil) is given as under 1000 µg/mL and the “aqueous and lipid solubility” value [1] is given as “poor”. The “absorption after oral administration” value [2] was “poor and often variable” and the “effectiveness in the treatment of malarial infections” value (malarial infections) was “very effective”.

In the case of `CCCCN(CCCC)CCC(O)c1cc2c(Cl)cc(Cl)cc2c2cc(C(F)(F)F)ccc12` (centres unmarked) [amorphous halofantrine free base], the solubility (physchem; peanut oil, organic solvent or mixture, miscible/soluble with peanut oil) is reported as over 400000 µg/mL.

In the case of `CCCCN(CCCC)CCC(O)c1cc2c(Cl)cc(Cl)cc2c2cc(C(F)(F)F)ccc12` (centres unmarked) [crystalline halofantrine free base], the solubility (physchem; triglycerides, organic solvent or mixture, solubility in triglycerides) is reported as over 80000 µg/mL.
